Experimental data from patent US7579374B2, “Agent for improving bone metabolism” (The Nisshin OilliO Group, Ltd., priority 2001, dated 2009).

Assays:
MC3T3-E1 cells [1] = assay: Alkaline phosphatase (ALP) activity of osteoblasts in cell culture system; type: cell-based, mice; conditions: 2.5 μM
From the text: (§1) In such a system, the osteoblasts are proliferated and the activity of osteoblasts is increased. Therefore, any influence of a substance on the osteoblast-formation can be evaluated by determining, for instance, the rate of cell proliferation and the alkaline phosphatase (ALP) activity as an activity parameter.
(§2) In this Example, there were examined the effects of the chain isoprenoid fatty acid esters on the differentiation and calcium-accumulation of MC3T3-E1 cells or the osteoblasts derived from the skull-caps of mice. A culture medium was added to a 6-well plate in an amount of 2 mL/well, a desired number of MC3T3-E1 cells was inoculated on the medium and the cells were cultivated in a 10% fatal bovine serum-containing base culture liquid (α-MEM, available from Gibco Company) at 37° C. in an atmosphere of 5% CO2. On the day subsequent to the initiation of the cultivation, the culture medium was replaced with the fresh one and simultaneously a solution containing each test sample (the chain isoprenoid fatty acid esters obtained in Preparation Examples 1 to 9) was admixed with and added to the culture medium in an amount of 10 μM for the determination of the cell growth rate and 2.5 μM for the determination of the alkali phosphatase (ALP) activity and the cultivation was continued. The cells for the cell growth rate determination were recovered after 3 days from the initiation of the cultivation and the number of viable cells was counted to determine the cell growth rate. Regarding the other cells, the medium was replaced with fresh one on 5th day of cultivation, the test sample-containing solution was again added and the alkali phosphatase (ALP) activity was determined after the cultivation over one week.
In these experiments, there was used a kit for Alkaline Phospha K-Test WAKO (available from WAKO Pure Chemical Co., Ltd.). A sample used was a suspension of cells obtained by cultivating the same in the presence of each test substance added. A substrate (150 μL) was added to 10 μL of each sample followed by heating at 37° C. for 15 minutes, the addition of 150 μL of a color-developing liquid and determination of the absorbance at 570 nm. The ALP activity corresponding to each absorbance thus measured was determined using a calibration curve prepared in advance.

osteoclasts = assay: Bone absorption-inhibitory action in cell co-cultivation system (TRACP activity); type: cell-based, mice; conditions: 10 μM test substance
From the text: The cell co-culture system used herein means a system in which osteoblasts and hematopoietic cells are subjected to co-culture in the presence of a factor for promoting the formation of osteoclasts and which thus easily permits the analysis of the differentiation process of the osteoclasts (Endocrinology, 1988, 123: 2600-2602). In such a system, osteoclasts are formed and therefore, the degree of osteoclast-formation can be evaluated by the determination of a tartaric acid-resistant acid phosphatase (TRACP) activity in the cell layer as the parameter indicative of the osteoclast.
The test for the confirmation of the bone absorption-inhibitory action of the isoprenoid ester was carried out according to the method disclosed in the literature (Endocrinology, 1988, 123: 2600). The method will be outlined below:
Stroma cells collected from the skull-caps of two-week-old mice according to the method disclosed in the literature (Endocrinology, 1988, 123: 2600) were dispersed in a 10% fetal bovine serum-containing culture base liquid (α-MEM; available from Gibco Company) to a cell density of 5×10^4 cells/mL.
Spleen cells collected from the spleen of 6-week-old ddy male mice according to the method disclosed in the literature (Proc. Natl. Acad. Sci. USA, 1983, 80: 5583) were dispersed in a 10% fetal bovine serum-containing culture base liquid (α-MEM; available from Gibco Company) to a cell density of 5×10^5 cells/mL.
The co-cultivation was carried out in a 5% CO2-containing atmosphere at a temperature of 37° C. using a 10% FBS (fetal bovine serum)-containing culture base liquid (α-MEM; available from Gibco Company). Osteoblast cells were inoculated on a 24-well petri dish at a cell density of 5×10^4 cells/mL/well, spleen cells were then inoculated thereon at a cell density of 5×10^5 cells/mL/well after one day and a solution of a test substance, which had been dissolved in DMSO in a concentration of 10^-2M, was then added to each well in such a manner that the concentration of the test substance was equal to 10 μM. These cells were cultivated in the presence of 10 nM Calcitriol and 100 nM Dexamethasone over 2 weeks while defining the day on which the spleen cells were inoculated as 0th day. In this respect, the culture medium was replaced with fresh one twice a week. After two weeks, the activity of the tartrate-resistant acid phosphatase (hereunder referred to as “TRACP”) in the cell layer was determined, which served as a parameter indicating the number of osteoclasts in the layer.
In the determination of the TRACP activity, there was used a kit of acid phosphatase KII-WAKO (available from WAKO Pure Chemical Co., Ltd.). The culture medium was removed from the Petri dish, 500 μL each of a substrate was added to each well, the resulting cell suspension was heated at 37° C. for 15 minutes, followed by the addition of 500 μL each of a color developing liquid and the determination of the absorbance at a wavelength of 570 nm. The TRACP activity corresponding to each absorbance thus measured was determined using a calibration curve prepared in advance.

Test for acute toxicity = type: in vivo, rats; conditions: oral
Procedure: The acute toxicity test was carried out according to the following method. Whister female rats (6-week-old, average body weight: 160 g) were previously kept for one week using a powdery blend feed having an AIN-93 composition, divided into three groups (each group containing 10 animals) in such a manner that the average body weight was uniform and the groups were specified as the orally administered group, the subcutaneously administered group and the intraperitoneally administered group, in the following tests. Geranyl-geranyl eicosapentaenoate prepared according to the procedures used in Example 5 was dissolved in cotton seed oil and administered to the foregoing animals through the corresponding administration routes in an amount of 2000 mg/kg (body weight). Subsequently, these animals were kept using a powdery blend feed having an AIN-93 composition to thus observe the prognostic conditions of the animals over 2 weeks after the administration and after 2 weeks, these animals were anatomized to thus inspect the animals for conditions of internal organs thereof.

MC3T3-E1 cells [2] = assay: Cell growth rate of osteoblasts in cell culture system; type: cell-based, mice; conditions: 10 μM; viable cells after 3 days; relative to control defined as 100
From the text: as §1, §2
The cell growth rate was calculated as a value relative to the cell growth rate observed for the control (free of any added test sample), which was defined to be 100.

Geranyl-Geranyl Eicosapentaenoate
ALP Act. (MC3T3-E1 cells [1]; cultivation over one week, control 71.6 ± 4.6): 123.5 ± 7.3 KA-U/well | Judged Efficacy (ALP, t-test relative to the control) (MC3T3-E1 cells [1]; one week): ⊚ (The test substance shows a considerable inhibitory effect (p < 0.01)) | Judged Efficacy (TRACP, t-test relative to the control) (osteoclasts; 2 weeks): ⊚ (The test substance shows a considerable inhibitory effect (p < 0.01)) | TRACP Act. (osteoclasts; co-culture 2 weeks with 10 nM Calcitriol and 100 nM Dexamethasone, control 102.8 ± 12.6): 9.7 ± 1.4 KA-U/well | Anatomical findings of the internal organs (Test for acute toxicity; 2000 mg/kg, subcutaneous, intraperitoneal, after 2 weeks): normal | Mortality (Test for acute toxicity; 2000 mg/kg, subcutaneous, intraperitoneal, after 2 weeks from the administration): any animal was not killed | LD50 value (Test for acute toxicity; female rats, subcutaneous and intraperitoneal groups, single 2000 mg/kg in cotton seed oil, 2 weeks observation): higher than 2000 mg/kg (body weight) | Cell Growth Rate (MC3T3-E1 cells [2]): 107.8%
